According to patent publication EP0555116B1, “Compositions based on antiseptics and their applications” (HUTCHINSON, priority 1992, dated 1993):
Like-named read-outs stand apart in the source and are kept apart here.

Key:
Assay type in all cases: cell-based
[1] = system: cellules fibroblastiques humaines; experiment: Cytotoxicity control of the products on human fibroblast cultures (10 tubes, 3 days); settings: pur et dilutions 10^-1 à 10^-3, 0,1 ml dans 1 ml
Excerpt: On réalise des contrôles de cytotoxicité des produits pour les cultures cellulaires utilisées dans les tests, c'est-à-dire les cellules fibroblastiques humaines.
Les cellules sont cultivées en milieu de Dulbecco enrichi en sérum de veau foetal à 10 %; au moment de leur utilisation, les cellules sont lavées et on utilise le même milieu de culture, mais dépourvu de sérum de veau.
Pour chaque produit testé ou chaque composition, on a utilisé 10 tubes de culture cellulaire et après inoculation du produit, les tubes ont été surveillés pendant trois jours.
Chaque produit a été successivement utilisé pur, et aux dilutions 10^-1, 10^-2, 10^-3 et ajouté aux tubes de culture contenant 1 ml de milieu nutritif, sous le volume de 0,1 ml.

[2] = system: spermatozoïdes; experiment: Spermicidal action: vitality of spermatozoa (eosin-nigrosin, 100 spermatozoa examined); settings: Homo sapiens, Sperm; for viability at 0.4 %: read-out: vitalité des spermatozoïdes, solution 0,4 %; for viability at 0.6 %: read-out: vitalité des spermatozoïdes, solution 0,6 %; for viability at 0.8 %: read-out: vitalité des spermatozoïdes, solution 0,8 %; for viability at 1 %: read-out: vitalité des spermatozoïdes, solution 1 %; for viability at 0.5 %: solution 0,5 %, read-out: vitalité des spermatozoïdes
Excerpt: Les différents échantillons de sperme (une goutte de sperme/échantillon) sont obtenus à partir de volontaires sains.
Une goutte de sperme est traitée par l'éosinenigrosine. Un frottis est ensuite réalisé et cent spermatozoïdes sont examinés au microscope. Les cellules mortes sont colorées en rouge, soit totalement, soit partiellement. Les cellules vivantes sont incolores.
Les substances étudiées ont été, le Bardac® et le digluconate de chlorhexidine, testés seuls et en association conformément à l'invention. Les différentes étapes du protocole sont indiquées aux Tableaux IV à VI.
Le temps de contact maximum des différentes substances et du sperme a été limité à 3 minutes afin de garantir l'efficacité de la méthode dans les conditions d'utilisation. La concentration des solutions actives dans le sperme a été limitée à 10 % afin de diminuer les risques de toxicité des produits pour les muqueuses. TABLEAU IV

[3] = system: Candida albicans ATCC 1031; experiment: Growth inhibition test (DGHM, Essai 2, Tables A-C), 72 h at 37°C; non/A/B/C = without or with inactivating substances A, B, C; settings: for concentration en substance active inhibant la croissance: antiseptique seul
Procedure: Un autre essai a été réalisé à partir des solutions suivantes : • 100 ml d'une solution à 0,1 % de digluconate de chlorhexidine (pH 6) et • 100 ml d'une solution à 0,1 % de Bardac 22®. […]
Les tests ont été réalisés conformément au protocole décrit dans le Chapitre I/2.1 et 2.2 de Richtlinien für die Prüfung und Bewertung chemischer Desinfektionsverfahren der DGHM, Stand 1.1., 1981).
Les Tableaux A, B et C illustrent respectivement l'activité bactéricide et fongicide d'une solution aqueuse à 0,1 % de digluconate de chlorhexidine, d'une solution aqueuse à 0,1 % de Bardac 22® et d'un mélange à part égale des deux composés. Les protocoles dont ces Tableaux illustrent les résultats comprennent une incubation de 72 heures à 37°C et l'utilisation, comme témoins, des substances inactivantes suivantes : A : Tween® 80 3 % + lécithine 0,3 % + cystéine 0,1 %; B : Tween® 80 3 % + saponine 3 % + cystéine 0,1 % + histidine 0,1 %; C : Tween® 80 3 % + lécithine 0,3 % + histidine 0,1 % + thiosulfate de sodium 0,5 %.
Dans ces Tableaux, le signe "+" indique une croissance et le signe "-" l'absence de croissance.

[4] = 1 min, 1 Min, 5 % dans le sperme
[5] = 1 min, 1 Min, 10 % dans le sperme
[6] = 0.05 h, 3 Min, 5 % dans le sperme
[7] = 0.05 h, 3 Min, 10 % dans le sperme

CCCCCCCCCC[N+](C)(C)CCCCCCCCCC [Bardac®, chlorure de didécyldiméthylammonium]
toxicité pour les cultures cellulaires ([1]; solution à 0,04 %): non toxique à la dilution 10^-3
viability at 0.4 % [2, 4]: 10.7 ± 7.6%
viability at 0.4 % [2, 5]: 5 ± 6.4%
viability at 0.6 % [2, 4]: 10.5 ± 9.7%
viability at 0.6 % [2, 5]: 9.2 ± 12.9%
viability at 0.8 % [2, 4]: 9.7 ± 10.2%
viability at 0.8 % [2, 5]: 1.8 ± 2.5%
viability at 1 % [2, 4]: 0%
viability at 1 % [2, 5]: 0%
viability at 0.4 % [2, 6]: 0.8 ± 1.2%
viability at 0.4 % [2, 7]: 0.8 ± 1%
viability at 0.6 % [2, 6]: 2.2 ± 4.5%
viability at 0.6 % [2, 7]: 0.4 ± 0.9%
viability at 0.8 % [2, 6]: 0%
viability at 0.8 % [2, 7]: 0%
viability at 1 % [2, 6]: 0%
viability at 1 % [2, 7]: 0%
croissance ([3]; Conc. 0,1 % (vol/vol), A): +
croissance ([3]; Conc. 0,1 % (vol/vol), B): +
croissance ([3]; Conc. 0,1 % (vol/vol), C): +
croissance ([3]; Conc. 0,1 % (vol/vol), non): -
croissance ([3]; Conc. 0,05 % (vol/vol), A): +
croissance ([3]; Conc. 0,5 % (vol/vol), A): +
croissance ([3]; Conc. 0,05 % (vol/vol), B): +
croissance ([3]; Conc. 0,5 % (vol/vol), B): +
croissance ([3]; Conc. 0,05 % (vol/vol), C): +
croissance ([3]; Conc. 0,5 % (vol/vol), C): +
croissance ([3]; Conc. 0,05 % (vol/vol), non): +
croissance ([3]; Conc. 0,5 % (vol/vol), non): -
croissance ([3]; Conc. 1,0 % (vol/vol), A): +
croissance ([3]; Conc. 1,0 % (vol/vol), B): +
croissance ([3]; Conc. 1,0 % (vol/vol), C): +
croissance ([3]; Conc. 1,0 % (vol/vol), non): -
croissance ([3]; Conc. 0,00625 % (vol/vol), A): +
croissance ([3]; Conc. 0,00625 % (vol/vol), B): +
croissance ([3]; Conc. 0,00625 % (vol/vol), C): +
croissance ([3]; Conc. 0,00625 % (vol/vol), non): +
croissance ([3]; Conc. 0,0125 % (vol/vol), A): +
croissance ([3]; Conc. 0,0125 % (vol/vol), B): +
croissance ([3]; Conc. 0,0125 % (vol/vol), C): +
croissance ([3]; Conc. 0,0125 % (vol/vol), non): +
croissance ([3]; Conc. 0,025 % (vol/vol), A): +
croissance ([3]; Conc. 0,025 % (vol/vol), B): +
croissance ([3]; Conc. 0,025 % (vol/vol), C): +
croissance ([3]; Conc. 0,025 % (vol/vol), non): +
concentration en substance active inhibant la croissance [3]: 0,0001%

[H]/N=C(\N/C(=N/[H])NCCCCCCNC(=N)NC(=N)Nc1ccc(Cl)cc1)Nc1ccc(Cl)cc1 [Chlorhexidine, digluconate de chlorhexidine, reference compound]
toxicité pour les cultures cellulaires ([1]; solution à 0,05 %): aucune toxicité
viability at 0.5 % [2, 4]: 77 ± 10.8%
viability at 0.5 % [2, 5]: 77.2 ± 5.6%
viability at 0.5 % [2, 6]: 78 ± 5.7%
viability at 0.5 % [2, 7]: 75.5%
croissance ([3]; Conc. 0,1 % (vol/vol), A): +
croissance ([3]; Conc. 0,1 % (vol/vol), B): +
croissance ([3]; Conc. 0,1 % (vol/vol), C): +
croissance ([3]; Conc. 0,1 % (vol/vol), non): +
croissance ([3]; Conc. 0,05 % (vol/vol), A): +
croissance ([3]; Conc. 0,5 % (vol/vol), A): +
croissance ([3]; Conc. 0,05 % (vol/vol), B): +
croissance ([3]; Conc. 0,5 % (vol/vol), B): +
croissance ([3]; Conc. 0,05 % (vol/vol), C): +
croissance ([3]; Conc. 0,5 % (vol/vol), C): +
croissance ([3]; Conc. 0,05 % (vol/vol), non): +
croissance ([3]; Conc. 0,5 % (vol/vol), non): +
croissance ([3]; Conc. 1,0 % (vol/vol), A): +
croissance ([3]; Conc. 1,0 % (vol/vol), B): +
croissance ([3]; Conc. 1,0 % (vol/vol), C): +
croissance ([3]; Conc. 1,0 % (vol/vol), non): -
croissance ([3]; Conc. 0,00625 % (vol/vol), A): +
croissance ([3]; Conc. 0,00625 % (vol/vol), B): +
croissance ([3]; Conc. 0,00625 % (vol/vol), C): +
croissance ([3]; Conc. 0,00625 % (vol/vol), non): +
croissance ([3]; Conc. 0,0125 % (vol/vol), A): +
croissance ([3]; Conc. 0,0125 % (vol/vol), B): +
croissance ([3]; Conc. 0,0125 % (vol/vol), C): +
croissance ([3]; Conc. 0,0125 % (vol/vol), non): +
croissance ([3]; Conc. 0,025 % (vol/vol), A): +
croissance ([3]; Conc. 0,025 % (vol/vol), B): +
croissance ([3]; Conc. 0,025 % (vol/vol), C): +
croissance ([3]; Conc. 0,025 % (vol/vol), non): +
concentration en substance active inhibant la croissance [3]: 0,001%
